Assay results taken from PMC7366380, “Discovery of a Potent and Selective Covalent Inhibitor and Activity-Based Probe for the Deubiquitylating Enzyme UCHL1, with Antifibrotic Activity” (Journal of the American Chemical Society, 2020).
“And” between values parts separate entries of the source, which are not always exact repeats. Identical values can stand only once.

How the values were obtained:
USP1 = USP1 (Homo sapiens, UniProt O94782); assay: biochemical
[1] = target: DUBs and other proteins in HEK293 cells (Homo sapiens, UniProt Q96FW1); assay: In-cell proteome-wide competitive ABPP, HEK293: other DUBs and proteins; conditions: replicates A-C; for Log2 reporter intensity values: OTUB1: competition with ABP 2, DMSO substract (FC); for Log2 reporter intensity values: OTUB1, DMSO subtracted
Chain of DUBs and other proteins in HEK293 cells (Homo sapiens, UniProt Q96FW1) (Q96FW1 whole entry): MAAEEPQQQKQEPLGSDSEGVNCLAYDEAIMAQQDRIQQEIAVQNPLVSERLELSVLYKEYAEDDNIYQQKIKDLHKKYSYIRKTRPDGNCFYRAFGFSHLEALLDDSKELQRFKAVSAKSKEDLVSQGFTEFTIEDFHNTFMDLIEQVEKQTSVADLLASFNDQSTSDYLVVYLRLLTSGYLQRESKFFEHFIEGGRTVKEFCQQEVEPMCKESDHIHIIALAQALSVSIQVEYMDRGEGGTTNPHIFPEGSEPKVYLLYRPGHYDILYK

[2] = target: DUBs and other proteins in HEK293 cells (Homo sapiens, UniProt Q9Y5T5); assay: as above; conditions: replicates A-C; for Log2 reporter intensity values: USP16: competition with ABP 2, DMSO substract (FC); for Log2 reporter intensity values: USP16, DMSO subtracted
Chain of DUBs and other proteins in HEK293 cells (Homo sapiens, UniProt Q9Y5T5) (Q9Y5T5 whole entry): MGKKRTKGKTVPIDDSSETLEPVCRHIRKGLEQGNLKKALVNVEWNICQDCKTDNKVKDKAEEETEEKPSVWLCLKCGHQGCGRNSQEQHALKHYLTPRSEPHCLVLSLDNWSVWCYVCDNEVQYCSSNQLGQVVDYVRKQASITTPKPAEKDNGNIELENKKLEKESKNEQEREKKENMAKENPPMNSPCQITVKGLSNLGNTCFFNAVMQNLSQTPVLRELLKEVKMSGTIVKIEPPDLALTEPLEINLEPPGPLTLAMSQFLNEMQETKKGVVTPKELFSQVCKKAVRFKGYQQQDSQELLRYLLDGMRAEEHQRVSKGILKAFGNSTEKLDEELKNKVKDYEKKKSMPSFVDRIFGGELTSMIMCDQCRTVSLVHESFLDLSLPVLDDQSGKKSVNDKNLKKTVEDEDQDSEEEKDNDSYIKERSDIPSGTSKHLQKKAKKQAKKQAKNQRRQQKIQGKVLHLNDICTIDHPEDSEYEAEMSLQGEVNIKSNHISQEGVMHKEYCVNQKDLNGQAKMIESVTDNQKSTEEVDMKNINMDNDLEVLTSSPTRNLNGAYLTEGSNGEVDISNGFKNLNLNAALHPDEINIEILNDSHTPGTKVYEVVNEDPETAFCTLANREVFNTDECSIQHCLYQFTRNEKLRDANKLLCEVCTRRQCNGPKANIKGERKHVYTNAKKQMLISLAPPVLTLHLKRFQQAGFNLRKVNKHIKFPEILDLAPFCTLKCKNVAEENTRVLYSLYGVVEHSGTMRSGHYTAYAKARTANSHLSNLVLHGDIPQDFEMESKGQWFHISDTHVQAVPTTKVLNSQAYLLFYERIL

[3] = target: DUBs and other proteins in HEK293 cells (Homo sapiens, UniProt Q93009); assay: as above; conditions: replicates A-C; for Log2 reporter intensity values: USP7: competition with ABP 2, DMSO substract (FC); for Log2 reporter intensity values: USP7, DMSO subtracted
Chain of DUBs and other proteins in HEK293 cells (Homo sapiens, UniProt Q93009) (Q93009 whole entry): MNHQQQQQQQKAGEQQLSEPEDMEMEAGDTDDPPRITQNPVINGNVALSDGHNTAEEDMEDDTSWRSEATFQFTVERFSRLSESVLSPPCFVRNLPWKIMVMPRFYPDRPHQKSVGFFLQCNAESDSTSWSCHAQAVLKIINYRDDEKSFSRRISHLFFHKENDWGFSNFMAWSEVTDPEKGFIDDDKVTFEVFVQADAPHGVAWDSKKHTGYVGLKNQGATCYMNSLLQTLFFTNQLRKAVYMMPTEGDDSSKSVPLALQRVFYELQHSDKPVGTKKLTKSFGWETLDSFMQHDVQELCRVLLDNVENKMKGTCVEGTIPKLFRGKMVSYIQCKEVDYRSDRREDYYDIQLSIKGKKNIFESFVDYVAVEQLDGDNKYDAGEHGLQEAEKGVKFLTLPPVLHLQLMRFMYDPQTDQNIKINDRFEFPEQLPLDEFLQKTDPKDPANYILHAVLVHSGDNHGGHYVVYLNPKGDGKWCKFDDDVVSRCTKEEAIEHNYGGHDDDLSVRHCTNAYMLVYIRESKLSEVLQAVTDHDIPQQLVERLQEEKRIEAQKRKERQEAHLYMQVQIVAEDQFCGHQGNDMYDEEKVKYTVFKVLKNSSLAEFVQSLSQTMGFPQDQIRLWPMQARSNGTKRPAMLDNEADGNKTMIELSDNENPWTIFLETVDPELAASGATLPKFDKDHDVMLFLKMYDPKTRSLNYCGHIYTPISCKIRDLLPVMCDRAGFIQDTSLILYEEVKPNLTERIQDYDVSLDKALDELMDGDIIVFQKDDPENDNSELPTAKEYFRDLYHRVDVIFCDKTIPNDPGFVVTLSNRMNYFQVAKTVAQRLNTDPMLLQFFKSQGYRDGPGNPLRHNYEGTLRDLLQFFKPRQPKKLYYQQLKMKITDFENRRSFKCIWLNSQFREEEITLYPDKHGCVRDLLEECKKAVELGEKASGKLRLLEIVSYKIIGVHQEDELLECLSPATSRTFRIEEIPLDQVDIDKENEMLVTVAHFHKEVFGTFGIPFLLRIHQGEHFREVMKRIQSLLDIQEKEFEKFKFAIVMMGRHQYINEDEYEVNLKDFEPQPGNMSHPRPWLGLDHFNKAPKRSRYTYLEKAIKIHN

[4] = target: DUBs and other proteins in HEK293 cells (Homo sapiens, UniProt Q7L5N1); assay: as above; conditions: for Log2 reporter intensity values, COPS6: TMT replicates; for Log2 reporter intensity values: COPS6: competition with ABP 2, DMSO substract (FC); for Log2 reporter intensity values: COPS6 / Log2 reporter intensity values: replicates A-C; for Log2 t-test Difference / Log2 reporter intensity values: COPS6
Chain of DUBs and other proteins in HEK293 cells (Homo sapiens, UniProt Q7L5N1) (Q7L5N1 whole entry): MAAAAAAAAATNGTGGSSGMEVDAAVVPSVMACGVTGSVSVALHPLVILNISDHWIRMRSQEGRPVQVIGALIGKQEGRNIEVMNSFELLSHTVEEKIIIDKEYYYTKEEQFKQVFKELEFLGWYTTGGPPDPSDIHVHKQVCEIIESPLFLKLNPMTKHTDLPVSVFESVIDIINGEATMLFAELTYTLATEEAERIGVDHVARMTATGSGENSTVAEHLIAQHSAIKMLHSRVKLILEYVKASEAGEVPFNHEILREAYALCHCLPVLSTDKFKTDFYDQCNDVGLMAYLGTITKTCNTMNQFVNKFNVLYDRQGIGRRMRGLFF

[5] = target: DUBs and other proteins in HEK293 cells (Homo sapiens, UniProt P51784); assay: as above; conditions: replicates A-C; for Log2 reporter intensity values: USP11: competition with ABP 2, DMSO substract (FC); for Log2 reporter intensity values: USP11, DMSO subtracted
Chain of DUBs and other proteins in HEK293 cells (Homo sapiens, UniProt P51784) (P51784 whole entry): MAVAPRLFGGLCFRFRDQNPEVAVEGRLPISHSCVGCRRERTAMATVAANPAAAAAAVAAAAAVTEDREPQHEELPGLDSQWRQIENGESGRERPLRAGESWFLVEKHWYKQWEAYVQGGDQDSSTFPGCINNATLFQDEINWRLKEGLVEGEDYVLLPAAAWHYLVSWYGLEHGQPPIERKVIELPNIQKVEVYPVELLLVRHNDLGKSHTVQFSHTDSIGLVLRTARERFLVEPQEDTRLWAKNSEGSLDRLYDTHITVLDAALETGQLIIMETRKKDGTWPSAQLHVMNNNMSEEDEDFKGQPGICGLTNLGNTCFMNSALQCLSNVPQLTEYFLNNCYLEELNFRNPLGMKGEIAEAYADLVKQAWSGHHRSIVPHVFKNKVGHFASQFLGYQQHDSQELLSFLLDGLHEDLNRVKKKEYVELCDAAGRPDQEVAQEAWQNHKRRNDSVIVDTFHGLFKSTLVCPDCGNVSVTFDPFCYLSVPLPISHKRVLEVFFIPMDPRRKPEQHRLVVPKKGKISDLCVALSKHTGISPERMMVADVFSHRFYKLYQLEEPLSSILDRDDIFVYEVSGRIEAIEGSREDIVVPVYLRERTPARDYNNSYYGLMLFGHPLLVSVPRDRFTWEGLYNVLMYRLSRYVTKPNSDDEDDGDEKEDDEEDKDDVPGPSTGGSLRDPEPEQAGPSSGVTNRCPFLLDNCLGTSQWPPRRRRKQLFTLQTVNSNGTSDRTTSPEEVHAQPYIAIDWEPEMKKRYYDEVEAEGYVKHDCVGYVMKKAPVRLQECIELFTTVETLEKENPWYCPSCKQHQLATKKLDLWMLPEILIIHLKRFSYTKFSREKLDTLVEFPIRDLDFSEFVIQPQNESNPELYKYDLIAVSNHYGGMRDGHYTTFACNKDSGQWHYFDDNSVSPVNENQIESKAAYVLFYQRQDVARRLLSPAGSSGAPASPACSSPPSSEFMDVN

[6] = target: DUBs and other proteins in HEK293 cells (Homo sapiens, UniProt Q14694); assay: as above; conditions: replicates A-C; for Log2 reporter intensity values: USP10: competition with ABP 2, DMSO substract (FC); for Log2 reporter intensity values: USP10, DMSO subtracted
Chain of DUBs and other proteins in HEK293 cells (Homo sapiens, UniProt Q14694) (Q14694 whole entry): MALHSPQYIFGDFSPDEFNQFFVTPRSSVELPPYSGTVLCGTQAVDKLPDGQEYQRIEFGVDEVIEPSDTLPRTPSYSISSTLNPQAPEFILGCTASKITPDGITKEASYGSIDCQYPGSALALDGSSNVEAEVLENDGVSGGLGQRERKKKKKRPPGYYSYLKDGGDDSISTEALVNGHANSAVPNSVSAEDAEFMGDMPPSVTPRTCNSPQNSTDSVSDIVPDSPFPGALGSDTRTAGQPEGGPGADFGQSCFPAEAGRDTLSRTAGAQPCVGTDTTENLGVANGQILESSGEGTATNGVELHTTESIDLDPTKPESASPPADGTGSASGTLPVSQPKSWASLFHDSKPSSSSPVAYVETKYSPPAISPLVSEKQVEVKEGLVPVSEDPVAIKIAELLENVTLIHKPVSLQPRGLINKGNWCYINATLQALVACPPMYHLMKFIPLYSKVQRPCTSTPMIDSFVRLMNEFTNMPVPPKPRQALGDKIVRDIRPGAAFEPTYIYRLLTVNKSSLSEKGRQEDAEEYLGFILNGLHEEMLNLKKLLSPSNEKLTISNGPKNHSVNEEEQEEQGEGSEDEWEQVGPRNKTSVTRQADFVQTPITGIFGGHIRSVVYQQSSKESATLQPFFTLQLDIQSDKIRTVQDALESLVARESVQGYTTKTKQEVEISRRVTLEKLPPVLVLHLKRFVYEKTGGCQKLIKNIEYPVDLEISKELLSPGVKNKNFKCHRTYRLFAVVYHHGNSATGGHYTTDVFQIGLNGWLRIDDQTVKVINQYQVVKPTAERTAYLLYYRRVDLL

[7] = target: T1, DUBs and other proteins in HEK293 cells (Homo sapiens, UniProt Q53GS9); assay: as above; conditions: replicates A-C; for Log2 reporter intensity values: USP39: competition with ABP 2, DMSO substract (FC); for Log2 reporter intensity values: USP39, DMSO subtracted
T1 sequence (Q53GS9 1-565): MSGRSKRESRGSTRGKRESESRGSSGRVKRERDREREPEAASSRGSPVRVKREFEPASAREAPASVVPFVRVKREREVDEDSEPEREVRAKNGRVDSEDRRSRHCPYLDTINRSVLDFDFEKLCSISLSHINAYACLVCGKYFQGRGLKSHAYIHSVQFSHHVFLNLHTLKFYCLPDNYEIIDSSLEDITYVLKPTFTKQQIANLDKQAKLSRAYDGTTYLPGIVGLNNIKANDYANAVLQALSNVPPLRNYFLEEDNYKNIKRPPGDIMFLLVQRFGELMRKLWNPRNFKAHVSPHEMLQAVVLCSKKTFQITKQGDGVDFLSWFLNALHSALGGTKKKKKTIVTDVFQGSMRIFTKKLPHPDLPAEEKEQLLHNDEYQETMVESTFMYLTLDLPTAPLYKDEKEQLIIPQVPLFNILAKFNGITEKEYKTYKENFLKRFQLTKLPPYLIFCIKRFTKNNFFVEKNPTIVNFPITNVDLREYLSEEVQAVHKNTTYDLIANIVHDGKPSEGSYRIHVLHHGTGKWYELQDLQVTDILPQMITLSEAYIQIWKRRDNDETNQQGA

[8] = target: DUBs and other proteins in HEK293 cells (Homo sapiens, UniProt Q96BN8); assay: as above; conditions: replicates A-C; for Log2 reporter intensity values: OTULIN: competition with ABP 2, DMSO substract (FC); for Log2 reporter intensity values: OTULIN, DMSO subtracted
Chain of DUBs and other proteins in HEK293 cells (Homo sapiens, UniProt Q96BN8) (Q96BN8 whole entry): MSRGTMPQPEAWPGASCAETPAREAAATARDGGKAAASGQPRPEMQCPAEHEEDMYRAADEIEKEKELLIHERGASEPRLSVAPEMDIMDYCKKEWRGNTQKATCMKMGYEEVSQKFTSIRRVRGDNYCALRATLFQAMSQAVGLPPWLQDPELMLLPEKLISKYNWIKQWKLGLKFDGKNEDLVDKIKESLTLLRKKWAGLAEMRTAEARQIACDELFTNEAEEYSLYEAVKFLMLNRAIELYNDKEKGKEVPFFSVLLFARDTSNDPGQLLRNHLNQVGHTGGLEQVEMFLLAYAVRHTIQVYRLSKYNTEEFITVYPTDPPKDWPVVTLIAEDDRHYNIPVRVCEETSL

In the case of `N#CN1CCC[C@H]1C(=O)N1CCc2c(-c3c[nH]c4ncccc34)cccc21` [Compound 1], the IC50 (USP1) is reported as greater than 10 µM, the “Log2 reporter intensity values: OTUB1” value ([1]; 1 at 1 μM) is reported as 1.079 and 1.058 and 1.055 and the “Log2 reporter intensity values: OTUB1” value ([1]; 1 at 4 μM) is reported as 0.9564 and 0.9957 and 1.033. The “Log2 reporter intensity values” ([1]; 1_1 μM) was 0.07905 and 0.05739 and 0.05461, the “Log2 reporter intensity values” ([1]; 1_4 μM) was -0.04373 and -0.004436 and 0.03334 and the “Log2 reporter intensity values” ([1]; 1 at 1 μM) was 0.1099 and 0.08068 and 0.07687. For the same molecule, the “Log2 reporter intensity values” ([1]; 1 at 4 μM) was -0.06433 and -0.00624 and 0.04749, the “Log2 reporter intensity values: USP16” value ([2]; 1 at 1 μM) was 1.022 and 1.047 and 1.014 and the “Log2 reporter intensity values: USP16” value ([2]; 1 at 4 μM) was 1.071 and 1.22 and 1.147. The “Log2 reporter intensity values” ([2]; 1_1 μM) was 0.01937 and 0.04439 and 0.01154, the “Log2 reporter intensity values” ([2]; 1_4 μM) was 0.06901 and 0.2175 and 0.1444 and the “Log2 reporter intensity values” ([2]; 1 at 1 μM) was 0.03077 and 0.06568 and 0.01967. The “Log2 reporter intensity values” ([2]; 1 at 4 μM) was 0.09923 and 0.2865 and 0.1974, the “Log2 reporter intensity values: USP7” value ([3]; 1 at 1 μM) was 1.015 and 0.998 and 1.012 and the “Log2 reporter intensity values: USP7” value ([3]; 1 at 4 μM) was 1.024 and 0.9908 and 1.009. The “Log2 reporter intensity values” ([3]; 1_1 μM) was 0.01464 and -0.002291 and 0.01166, the “Log2 reporter intensity values” ([3]; 1_4 μM) was 0.02367 and -0.009481 and 0.008925 and the “Log2 reporter intensity values” ([3]; 1 at 1 μM) was 0.02137 and -0.002902 and 0.01712. The “Log2 reporter intensity values” ([3]; 1 at 4 μM) was 0.03415 and -0.01333 and 0.01322, the “Log2 reporter intensity values, COPS6” value ([4]; 1 μM 1 (60 min) + 20 nM ABP 2 (10 min), All values) was -0.0741 and -0.01578 and 0.003018 and the “Log2 reporter intensity values, COPS6” value ([4]; 1 μM 1 (60 min) + 20 nM ABP 2 (10 min), DMSO subtracted) was -0.08651 and -0.02819 and -0.009395. The “Log2 reporter intensity values, COPS6” value ([4]; 4 μM 1 (60 min) + 20 nM ABP 2 (10 min), All values) was 0.02899 and -0.02559 and 0.0005347, the “Log2 reporter intensity values, COPS6” value ([4]; 4 μM 1 (60 min) + 20 nM ABP 2 (10 min), DMSO subtracted) was 0.01657 and -0.038 and -0.01188 and the “Log2 reporter intensity values: COPS6” value ([4]; 1 at 1 μM) was 0.9418 and 0.9806 and 0.9935. For the same molecule, the “Log2 reporter intensity values: COPS6” value ([4]; 1 at 4 μM) was 1.012 and 0.974 and 0.9918, the “Log2 t-test Difference” value ([4]; 1 - 1 μM) was -0.08501 and the “Log2 t-test Difference” value ([4]; 1 - 4 μM) was -0.05474. The “Log2 reporter intensity values” ([4]; 1_1 μM, DMSO subtracted) was -0.05832 and -0.01946 and -0.006603, the “Log2 reporter intensity values” ([4]; 1_4 μM, DMSO subtracted) was 0.01144 and -0.02611 and -0.008312 and the “Log2 reporter intensity values” ([4]; 1 at 1 μM, DMSO subtracted) was -0.08651 and -0.02819 and -0.009395. The “Log2 reporter intensity values” ([4]; 1 at 4 μM, DMSO subtracted) was 0.01657 and -0.038 and -0.01188, the “Log2 reporter intensity values: USP11” value ([5]; 1 at 1 μM) was 1.082 and 1.001 and 1.048 and the “Log2 reporter intensity values: USP11” value ([5]; 1 at 4 μM) was 1.053 and 0.9981 and 1.068. For the same molecule, the “Log2 reporter intensity values” ([5]; 1_1 μM) was 0.08158 and 0.0009743 and 0.04766, the “Log2 reporter intensity values” ([5]; 1_4 μM) was 0.05297 and -0.002249 and 0.06752 and the “Log2 reporter intensity values” ([5]; 1 at 1 μM) was 0.1136 and 0.00189 and 0.06764. The “Log2 reporter intensity values” ([5]; 1 at 4 μM) was 0.07493 and -0.002761 and 0.09472, the “Log2 reporter intensity values: USP10” value ([6]; 1 at 1 μM) was 0.8161 and 0.9562 and 0.9573 and the “Log2 reporter intensity values: USP10” value ([6]; 1 at 4 μM) was 0.9286 and 0.9489 and 0.874. The “Log2 reporter intensity values” ([6]; 1_1 μM) was -0.1848 and -0.04476 and -0.04368, the “Log2 reporter intensity values” ([6]; 1_4 μM) was -0.07234 and -0.05211 and -0.1269 and the “Log2 reporter intensity values” ([6]; 1 at 1 μM) was -0.2931 and -0.06461 and -0.06297. The “Log2 reporter intensity values” ([6]; 1 at 4 μM) was -0.1068 and -0.07574 and -0.1942, the “Log2 reporter intensity values: USP39” value ([7]; 1 at 1 μM) was 1.016 and 0.9671 and 0.9953 and the “Log2 reporter intensity values: USP39” value ([7]; 1 at 4 μM) was 1.053 and 0.9437 and 0.9559. The “Log2 reporter intensity values” ([7]; 1_1 μM) was 0.01573 and -0.03349 and -0.00527, the “Log2 reporter intensity values” ([7]; 1_4 μM) was 0.0526 and -0.05693 and -0.04466 and the “Log2 reporter intensity values” ([7]; 1 at 1 μM) was 0.02338 and -0.04824 and -0.006739. For the same molecule, the “Log2 reporter intensity values” ([7]; 1 at 4 μM) was 0.0748 and -0.08363 and -0.065, the “Log2 reporter intensity values: OTULIN” value ([8]; 1 at 1 μM) was 1.158 and 1.113 and 1.037 and the “Log2 reporter intensity values: OTULIN” value ([8]; 1 at 4 μM) was 1.068 and 1.004 and 1.156. For the same molecule, the “Log2 reporter intensity values” ([8]; 1_1 μM) was 0.1579 and 0.1121 and 0.03603, the “Log2 reporter intensity values” ([8]; 1_4 μM) was 0.06743 and 0.003361 and 0.1557 and the “Log2 reporter intensity values” ([8]; 1 at 1 μM) was 0.2122 and 0.154 and 0.0518. The “Log2 reporter intensity values” ([8]; 1 at 4 μM) was 0.09485 and 0.0056 and 0.2094.
